Data reported in patent US20080058213A1, “Benzoxazole Compounds” (priority 2004, published 2008).

Experiments:
Assay type in all cases: in vivo
[1] = tested on: velvetleaf (Abutilon theophrasti); experiment: Soil treatment test for upland field (Test Example 2): velvetleaf; conditions: soil treatment before germination, examined after 3 weeks
Excerpt: (§1) Evaluation of the herbicidal effect is shown in the following six grades, by comparing the condition of untreated control and growth inhibition (%): • 0: 0%-less than 20% • 1: 20%-less than 40% • 2: 40%-less than 60% • 3: 60%-less than 80% • 4: 80%-less than 100% • 5: 100%.
(§2) Upland field soil was filled in 1/3,000 are pots, seeded with southern crabgrass (Digitaria ciliaris), common lambsquaters (Chenopodium album), slender amaranth (Amaranthus viridis), common purslane (Portulaca oleracea), velvetleaf (Abutilon theophrasti), wheat, corn and soybean. The seeds were covered up with the soil.
(§3) Wettable powders containing the object compounds (1) as identified in Table 1, which were formulated following Preparation Example 2, were diluted with adequate amount of water to secure the prescribed dose of the active ingredient, and uniformly sprayed onto the surface soil layer after the seeding and before germination of the weeds, at an application water of 15 liters per are.
(§4) After placing the test pots in a glasshouse which was kept at an average temperature of 25° C. for 3 weeks, the herbicidal effect was examined.
(§5) Evaluations of the herbicidal effect and phytotoxicity were made in the manner similar to those in the above Test Example 1.

wheat [2] = experiment: Soil treatment test for upland field (Test Example 2): phytotoxicity to wheat; conditions: soil treatment before germination, examined after 3 weeks
Excerpt: (§6) Evaluation of phytotoxicity is shown in the following six grades, as compared with the condition of untreated control: • 0: normal growth • 1: little damaged • 2: low damaged • 3: medium damaged • 4: serious damaged • 5: complete killed.
as §2, §4

velvetleaf = experiment: Foliage treatment test for upland field (Test Example 3): velvetleaf; conditions: foliage treatment at 1.0-2.0 leaf stage of southern crabgrass, examined after 3 weeks
Excerpt: as §1
(§7) Compost mixed soil was filled in 1/3,000 are pots, seeded with southern crabgrass, common lambsquaters, slender amaranth, common purslane, velvetleaf, wheat, corn and soybean. The seeds were covered up with the soil and cultured in a glasshouse kept at 25° C. on the average.
(§8) Wettable powders containing the object compounds (1) as identified in Table 1, which were formulated following Preparation Example 2, were diluted with water to the prescribed dose of the active ingredient, and uniformly sprayed onto the weeds at 1.0-2.0 leaf stage of the southern crabgrass at an application water of 15 liters per are.
(§9) After placing the test pots in a grasshouse kept at 25° C. on the average for 3 weeks, the herbicidal effect was examined.
(§10) Evaluation of the herbicidal effect was conducted in the similar manner to Test Example 1.

[3] = tested on: common lambsquaters (Chenopodium album); experiment: Soil treatment test for upland field (Test Example 2): common lambsquaters; conditions: soil treatment before germination, examined after 3 weeks
Excerpt: as §1, §2, §3, §4, §5

soybean [4] = experiment: Soil treatment test for upland field (Test Example 2): phytotoxicity to soybean; conditions: soil treatment before germination, examined after 3 weeks
Excerpt: as §6, §2, §4

corn [5] = experiment: Foliage treatment test for upland field (Test Example 3): phytotoxicity to corn; conditions: foliage treatment at 1.0-2.0 leaf stage of southern crabgrass, examined after 3 weeks
Experimental: as §6, §7, §9

wheat [6] = experiment: Foliage treatment test for upland field (Test Example 3): phytotoxicity to wheat; conditions: foliage treatment at 1.0-2.0 leaf stage of southern crabgrass, examined after 3 weeks
Experimental: as §6, §7, §9

[7] = tested on: slender amaranth (Amaranthus viridis); experiment: Soil treatment test for upland field (Test Example 2): slender amaranth; conditions: soil treatment before germination, examined after 3 weeks
Excerpt: as §1, §2, §3, §4, §5

southern crabgrass = experiment: Foliage treatment test for upland field (Test Example 3): southern crabgrass; conditions: foliage treatment at 1.0-2.0 leaf stage of southern crabgrass, examined after 3 weeks
Excerpt: as §1, §7, §8, §9, §10

corn [8] = experiment: Soil treatment test for upland field (Test Example 2): phytotoxicity to corn; conditions: soil treatment before germination, examined after 3 weeks
Excerpt: as §6, §2, §4

common purslane = experiment: Foliage treatment test for upland field (Test Example 3): common purslane; conditions: foliage treatment at 1.0-2.0 leaf stage of southern crabgrass, examined after 3 weeks
Excerpt: as §1, §7, §8, §9, §10

[9] = tested on: southern crabgrass (Digitaria ciliaris); experiment: Soil treatment test for upland field (Test Example 2): southern crabgrass; conditions: soil treatment before germination, examined after 3 weeks
Excerpt: as §1, §2, §3, §4, §5

slender amaranth = experiment: Foliage treatment test for upland field (Test Example 3): slender amaranth; conditions: foliage treatment at 1.0-2.0 leaf stage of southern crabgrass, examined after 3 weeks
Excerpt: as §1, §7, §8, §9, §10

soybean [10] = experiment: Foliage treatment test for upland field (Test Example 3): phytotoxicity to soybean; conditions: foliage treatment at 1.0-2.0 leaf stage of southern crabgrass, examined after 3 weeks
Experimental: as §6, §7, §9

[11] = tested on: common purslane (Portulaca oleracea); experiment: Soil treatment test for upland field (Test Example 2): common purslane; conditions: soil treatment before germination, examined after 3 weeks
Excerpt: as §1, §2, §3, §4, §5

common lambsquaters = experiment: Foliage treatment test for upland field (Test Example 3): common lambsquaters; conditions: foliage treatment at 1.0-2.0 leaf stage of southern crabgrass, examined after 3 weeks
Excerpt: as §1, §7, §8, §9, §10

CCSCC(=Cc1cccc(C(F)(F)F)c1)c1nc2cc(C(F)(F)F)ccc2o1 [Compound 84]
Herbicidal Effect velvetleaf ([1]; dose 2.5 g ai/a): 2 (40%-less than 60%)
Herbicidal Effect velvetleaf ([1]; dose 5 g ai/a): 2 (40%-less than 60%)
Phytotoxicity wheat (wheat [2]; dose 2.5 g ai/a): 0
Phytotoxicity wheat (wheat [2]; dose 5 g ai/a): 0
Herbicidal Effect velvetleaf (velvetleaf; dose 2.5 g ai/a): 2 (40%-less than 60%)
Herbicidal Effect velvetleaf (velvetleaf; dose 5 g ai/a): 3 (60%-less than 80%)
Herbicidal Effect common lambsquaters ([3]; dose 2.5 g ai/a): 5 (100%)
Herbicidal Effect common lambsquaters ([3]; dose 5 g ai/a): 5 (100%)
Phytotoxicity soybean (soybean [4]; dose 2.5 g ai/a): 0
Phytotoxicity soybean (soybean [4]; dose 5 g ai/a): 0
Phytotoxicity corn (corn [5]; dose 2.5 g ai/a): 0
Phytotoxicity corn (corn [5]; dose 5 g ai/a): 1
Phytotoxicity wheat (wheat [6]; dose 2.5 g ai/a): 0
Phytotoxicity wheat (wheat [6]; dose 5 g ai/a): 0
Herbicidal Effect slender amaranth ([7]; dose 2.5 g ai/a): 4 (80%-less than 100%)
Herbicidal Effect slender amaranth ([7]; dose 5 g ai/a): 5 (100%)
Herbicidal Effect southern crabgrass (southern crabgrass; dose 2.5 g ai/a): 4 (80%-less than 100%)
Herbicidal Effect southern crabgrass (southern crabgrass; dose 5 g ai/a): 4 (80%-less than 100%)
Phytotoxicity corn (corn [8]; dose 2.5 g ai/a): 0
Phytotoxicity corn (corn [8]; dose 5 g ai/a): 0
Herbicidal Effect common purslane (common purslane; dose 2.5 g ai/a): 4 (80%-less than 100%)
Herbicidal Effect common purslane (common purslane; dose 5 g ai/a): 5 (100%)
Herbicidal Effect southern crabgrass ([9]; dose 2.5 g ai/a): 3 (60%-less than 80%)
Herbicidal Effect southern crabgrass ([9]; dose 5 g ai/a): 3 (60%-less than 80%)
Herbicidal Effect slender amaranth (slender amaranth; dose 2.5 g ai/a): 5 (100%)
Herbicidal Effect slender amaranth (slender amaranth; dose 5 g ai/a): 5 (100%)
Phytotoxicity soybean (soybean [10]; dose 2.5 g ai/a): 0
Phytotoxicity soybean (soybean [10]; dose 5 g ai/a): 0
Herbicidal Effect common purslane ([11]; dose 2.5 g ai/a): 5 (100%)
Herbicidal Effect common purslane ([11]; dose 5 g ai/a): 5 (100%)
Herbicidal Effect Common lambsquatters (common lambsquaters; dose 2.5 g ai/a): 4 (80%-less than 100%)
Herbicidal Effect Common lambsquatters (common lambsquaters; dose 5 g ai/a): 5 (100%)

FC(F)C(F)(F)COCC(=Cc1cccc(C(F)(F)F)c1)c1nc2cc(C(F)(F)F)ccc2o1 [Compound 87]
Herbicidal Effect velvetleaf ([1]; dose 2.5 g ai/a): 4 (80%-less than 100%)
Herbicidal Effect velvetleaf ([1]; dose 5 g ai/a): 5 (100%)
Phytotoxicity wheat (wheat [2]; dose 2.5 g ai/a): 0
Phytotoxicity wheat (wheat [2]; dose 5 g ai/a): 1
Herbicidal Effect velvetleaf (velvetleaf; dose 2.5 g ai/a): 4 (80%-less than 100%)
Herbicidal Effect velvetleaf (velvetleaf; dose 5 g ai/a): 5 (100%)
Herbicidal Effect common lambsquaters ([3]; dose 2.5 g ai/a): 5 (100%)
Herbicidal Effect common lambsquaters ([3]; dose 5 g ai/a): 5 (100%)
Phytotoxicity soybean (soybean [4]; dose 2.5 g ai/a): 0
Phytotoxicity soybean (soybean [4]; dose 5 g ai/a): 1
Phytotoxicity corn (corn [5]; dose 2.5 g ai/a): 0
Phytotoxicity corn (corn [5]; dose 5 g ai/a): 1
Phytotoxicity wheat (wheat [6]; dose 2.5 g ai/a): 0
Phytotoxicity wheat (wheat [6]; dose 5 g ai/a): 1
Herbicidal Effect slender amaranth ([7]; dose 2.5 g ai/a): 5 (100%)
Herbicidal Effect slender amaranth ([7]; dose 5 g ai/a): 5 (100%)
Herbicidal Effect southern crabgrass (southern crabgrass; dose 2.5 g ai/a): 4 (80%-less than 100%)
Herbicidal Effect southern crabgrass (southern crabgrass; dose 5 g ai/a): 5 (100%)
Phytotoxicity corn (corn [8]; dose 2.5 g ai/a): 0
Phytotoxicity corn (corn [8]; dose 5 g ai/a): 0
Herbicidal Effect common purslane (common purslane; dose 2.5 g ai/a): 5 (100%)
Herbicidal Effect common purslane (common purslane; dose 5 g ai/a): 5 (100%)
Herbicidal Effect southern crabgrass ([9]; dose 2.5 g ai/a): 4 (80%-less than 100%)
Herbicidal Effect southern crabgrass ([9]; dose 5 g ai/a): 5 (100%)
Herbicidal Effect slender amaranth (slender amaranth; dose 2.5 g ai/a): 5 (100%)
Herbicidal Effect slender amaranth (slender amaranth; dose 5 g ai/a): 5 (100%)
Phytotoxicity soybean (soybean [10]; dose 2.5 g ai/a): 1
Phytotoxicity soybean (soybean [10]; dose 5 g ai/a): 1
Herbicidal Effect common purslane ([11]; dose 2.5 g ai/a): 5 (100%)
Herbicidal Effect common purslane ([11]; dose 5 g ai/a): 5 (100%)
Herbicidal Effect Common lambsquatters (common lambsquaters; dose 2.5 g ai/a): 5 (100%)
Herbicidal Effect Common lambsquatters (common lambsquaters; dose 5 g ai/a): 5 (100%)
